Test system: P12-Ichikawa
Test: cell viability relative to DMSO control; higher = less cytotoxic
Conditions: 48 h
Method in brief: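 Cells were incubated for 48 h at 37°C before CellTiter-Glo One luminescence was read. The cells were NOMO1 or SEM (500 cells/well) or P12-Ichikawa (1000 cells/well) leukemia cells, adapted for at least four passages in each medium and seeded in 1536-well plates (5 μl). Dosing used library compounds in DMSO applied by pin over 11 threefold points, 47 μM to 0.79 nM. Viability is the per-plate percentage of DMSO wells, with cell-free wells as background.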

[1] = RPMI 5 mM glucose + 10% dialyzed FBS, 0.000781 µM
[2] = RPMI 5 mM glucose + 10% dialyzed FBS, 0.00234 µM
[3] = RPMI 5 mM glucose + 10% dialyzed FBS, 0.00702 µM
[4] = RPMI 5 mM glucose + 10% dialyzed FBS, 0.0211 µM
[5] = RPMI 5 mM glucose + 10% dialyzed FBS, 0.0632 µM
[6] = RPMI 5 mM glucose + 10% dialyzed FBS, 0.19 µM
[7] = RPMI 5 mM glucose + 10% dialyzed FBS, 0.569 µM
[8] = RPMI 5 mM glucose + 10% dialyzed FBS, 1.71 µM
[9] = RPMI 5 mM glucose + 10% dialyzed FBS, 5.12 µM
[10] = RPMI 5 mM glucose + 10% dialyzed FBS, 15.4 µM
[11] = RPMI 5 mM glucose + 10% dialyzed FBS, 46.1 µM
[12] = HPLM + 10% dialyzed FBS, 0.000781 µM
[13] = HPLM + 10% dialyzed FBS, 0.00234 µM
[14] = HPLM + 10% dialyzed FBS, 0.00702 µM
[15] = HPLM + 10% dialyzed FBS, 0.0211 µM
[16] = HPLM + 10% dialyzed FBS, 0.0632 µM
[17] = HPLM + 10% dialyzed FBS, 0.19 µM
[18] = HPLM + 10% dialyzed FBS, 0.569 µM
[19] = HPLM + 10% dialyzed FBS, 1.71 µM
[20] = HPLM + 10% dialyzed FBS, 5.12 µM
[21] = HPLM + 10% dialyzed FBS, 15.4 µM
[22] = HPLM + 10% dialyzed FBS, 46.1 µM
[23] = RPMI 5 mM glucose + 10% FBS, 0.000781 µM
[24] = RPMI 5 mM glucose + 10% FBS, 0.00234 µM
[25] = RPMI 5 mM glucose + 10% FBS, 0.00702 µM
[26] = RPMI 5 mM glucose + 10% FBS, 0.0211 µM
[27] = RPMI 5 mM glucose + 10% FBS, 0.0632 µM
[28] = RPMI 5 mM glucose + 10% FBS, 0.19 µM
[29] = RPMI 5 mM glucose + 10% FBS, 0.569 µM
[30] = RPMI 5 mM glucose + 10% FBS, 1.71 µM
[31] = RPMI 5 mM glucose + 10% FBS, 5.12 µM
[32] = RPMI 5 mM glucose + 10% FBS, 15.4 µM
[33] = RPMI 5 mM glucose + 10% FBS, 46.1 µM

SMILES | cell viability [1] | cell viability [2] | cell viability [3] | cell viability [4] | cell viability [5] | cell viability [6] | cell viability [7] | cell viability [8] | cell viability [9] | cell viability [10] | cell viability [11] | cell viability [12] | cell viability [13] | cell viability [14] | cell viability [15] | cell viability [16] | cell viability [17] | cell viability [18] | cell viability [19] | cell viability [20] | cell viability [21] | cell viability [22] | cell viability [23] | cell viability [24] | cell viability [25] | cell viability [26] | cell viability [27] | cell viability [28] | cell viability [29] | cell viability [30] | cell viability [31] | cell viability [32] | cell viability [33]
C[C@]12C[C@H](O)[C@H]3[C@@H](CC\C4=C\C(=O)\C=C/[C@]34C)[C@@H]1CC[C@]2(O)C(=O)CO | 128% | 118% | 119% | 121% | 117% | 107% | 88.2% | 69.7% | 57.9% | 52% | 14% | – | – | – | – | – | – | – | – | – | – | – | – | – | – | – | – | – | – | – | – | – | –
CCN(CC)CC#CCOC(=O)C(O)(c1ccccc1)C1CCCCC1 (stereo unspecified) | 118% | 119% | 120% | 85.5% | 137% | 135% | 125% | 123% | 122% | 117% | 111% | 105% | 118% | 113% | 78.3% | 119% | 110% | 120% | 117% | 118% | 118% | 106% | – | – | – | – | – | – | – | – | – | – | –
NC[C@H]1CC[C@H](C(=O)O)CC1 | – | – | – | – | – | – | – | – | – | – | – | – | – | – | – | – | – | – | – | – | – | – | 15% | 141% | 125% | 134% | 139% | 123% | 136% | 129% | 132% | 128% | 121%
C[C@]12CC[C@@H]3c4ccc(OC(=O)N(CCCl)CCCl)cc4CC[C@H]3[C@@H]1CC[C@@H]2OP(=O)([O-])[O-].[Na+].[Na+] | 107% | 116% | 117% | 82.8% | 117% | 105% | 106% | 111% | 96% | 104% | 88.1% | 118% | 115% | 113% | 94.4% | 121% | 117% | 105% | 111% | 113% | 110% | 26.6% | 115% | 118% | 117% | 89% | 5.78% | 123% | 118% | 117% | 106% | 98.7% | 119%
CC1=NN(c2ccc(C)c(C)c2)C(=O)/C1=N/Nc1cccc(-c2cccc(C(=O)O)c2)c1O | – | – | – | – | – | – | – | – | – | – | – | 120% | 120% | 129% | 124% | 116% | 127% | 121% | 118% | 112% | 91.1% | 68.1% | – | – | – | – | – | – | – | – | – | – | –
COc1ccc(Cc2ccc(NC(N)=O)cc2)cc1-c1cccc(Cl)c1 | 110% | 120% | 113% | 111% | 117% | 119% | 115% | 131% | 121% | 124% | 113% | 112% | 115% | 127% | 121% | 118% | 118% | 123% | 124% | 126% | 122% | 116% | 114% | 134% | 122% | 131% | 130% | 127% | 117% | 130% | 149% | 132% | 124%
ClC1=C(N\C2=N\CCN2)C3=NSN=C3C=C1 | 107% | 115% | 114% | 127% | 124% | 116% | 129% | 115% | 124% | 120% | 127% | 106% | 117% | 122% | 130% | 119% | 117% | 119% | 115% | 120% | 127% | 124% | – | – | – | – | – | – | – | – | – | – | –
CC(C)(C)C(=O)Oc1ccc2c(c1)nc(NC(=O)c1cccc([N+](=O)[O-])c1)n2CCCO | 118% | 122% | 121% | 117% | 118% | 112% | 115% | 103% | 111% | 97.4% | 89.4% | 120% | 123% | 118% | 119% | 115% | 119% | 116% | 106% | 109% | 111% | 106% | – | – | – | – | – | – | – | – | – | – | –
C[C@H](NC(=O)/C(C#N)=C/c1cccc(Br)n1)c1ccccc1 | 111% | 109% | 113% | 111% | 109% | 126% | 121% | 79.2% | 9.86% | 7.21% | 6.61% | 107% | 113% | 112% | 121% | 119% | 122% | 120% | 45.1% | 7.82% | 7.53% | 7.45% | 112% | 119% | 112% | 111% | 118% | 125% | 131% | 88.3% | 9.63% | 6.78% | 6.3%
CN(c1ncccc1CNc1nc(Nc2ccc3c(c2)CC(=O)N3)ncc1C(F)(F)F)[S+](C)(=O)[O-] | 115% | 118% | 117% | 114% | 117% | 108% | 114% | 114% | 110% | 105% | 48.2% | 111% | 117% | 109% | 109% | 112% | 112% | 103% | 109% | 112% | 101% | 57.8% | 111% | 113% | 116% | 110% | 121% | 113% | 114% | 114% | 100% | 88.9% | 50.1%

From the supplement of paper PMC11451515
